According to patent publication US7754896B2, “Indol-alanine derivatives as selective S1P4-agonists” (Novartis AG, priority 2004, dated 2010):

Molecular target: T1, S1P1 (Homo sapiens, UniProt P21453)
T1 construct: expressed in transfected cells
Assay: GTPγS binding assay, S1P1
Assay type: biochemical
Settings: CHO cells expressing S1P1
Description: Human S1P1 (GenBank™ accession number M31210) and S1P3 (GenBank™ accession number X83864) cDNA containing the myc sequence in front to the human S1P1 and S1P3 sequences are inserted in the pcDNA 3.1 vector. The vectors are sequenced to completion to confirm the correctness of the construct. The human S1P2 (GI: 4090955, TREMBL: 0195136) is cloned by a PCR based method. Lung cDNA (marathon cDNA) is obtained (BD Biosciences Chontech, Palo Alto, Calif. 94303, USA). Following oligonucleotides are used for the PCR reaction: forward primer CACCATGGGCAGCTTGTACTCGGAGTACCT GM CCC CAA CM GGT CCA G (1 to 45, GenBank™ accession number AF034780) and reverse primer 5′-GATTCAGACCACCGTGTTGCCCTCCAG (1062 to 1039, GenBank™ accession number AF034780), the initiation of the translation (ATG) and the stop codon are underlined. […] The amplified product of around 1100 bp is analyzed by standard agarose gel-electrophoresis. […]
Membrane proteins are prepared from wild type CHO-K1 and the CHO cell clones expressing human S1P4. […] The protein concentration is determined using the Bio Rad Protein Assay and human IgG as standard. […]

T1 sequence (P21453 whole entry): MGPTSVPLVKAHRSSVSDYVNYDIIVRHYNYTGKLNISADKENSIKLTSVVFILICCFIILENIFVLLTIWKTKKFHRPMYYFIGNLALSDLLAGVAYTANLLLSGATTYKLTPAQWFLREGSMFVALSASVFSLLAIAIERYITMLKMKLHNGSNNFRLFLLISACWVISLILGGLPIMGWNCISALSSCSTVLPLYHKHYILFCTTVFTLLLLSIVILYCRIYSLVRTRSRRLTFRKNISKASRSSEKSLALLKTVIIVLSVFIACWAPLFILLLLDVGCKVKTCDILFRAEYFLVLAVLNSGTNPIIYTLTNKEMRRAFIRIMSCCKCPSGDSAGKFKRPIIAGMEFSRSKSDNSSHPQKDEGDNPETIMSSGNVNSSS

NC(CNC(=O)c1cc2c(-c3ccccc3Cc3ccccc3)cccc2[nH]1)C(=O)O (stereo not shown) [Example 2]
EC50: > 10 µM
